Reference: the supplement of paper PMC4862054

Columns and labels:
Test in all cases: drug sensitivity score (DSS), CellTox Green (DSS (AUC-based score)); higher = stronger drug effect (viability inhibition or cytotoxicity); extreme values may be limits of the assay
Conditions in all cases: incubation time: 72 h
BT-474 = tested on: BT-474
How it was run: (§1)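 For 72 h, breast cancer cell lines seeded at 20 µl suspension per well in 384-well plates were incubated with compound at 5 concentrations in 10-fold steps spanning a 10,000-fold range that differed by compound. The first reading was CellTox Green fluorescence at 485/520 nm, and the second was CellTiter-Glo luminescence after 10 min at room temperature. Both were normalised per plate to 0.1 % DMSO and a positive kill control, and the drug sensitivity score was obtained from the area under the fitted dose-response curve.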

BT-549 = tested on: BT-549
How it was run: as §1

CAL-120 = tested on: CAL-120
How it was run: as §1

CAL-51 = tested on: CAL-51
How it was run: as §1

CAL-85-1 = tested on: CAL-85-1
How it was run: as §1

DU-4475 = tested on: DU-4475
How it was run: as §1

HCC1143 = tested on: HCC1143
How it was run: as §1

HCC1599 = tested on: HCC1599
How it was run: as §1

HCC1937 = tested on: HCC1937
How it was run: as §1

HDQ-P1 = tested on: HDQ-P1
How it was run: as §1

Hs578T = tested on: Hs578T
How it was run: as §1

MCF-10A = tested on: MCF-10A
How it was run: as §1

MDA-MB-231 = tested on: MDA-MB-231
How it was run: as §1

MDA-MB-436 = tested on: MDA-MB-436
How it was run: as §1

MDA-MB-453 = tested on: MDA-MB-453
How it was run: as §1

MDA-MB-468 = tested on: MDA-MB-468
How it was run: as §1

MFM-223 = tested on: MFM-223
How it was run: as §1

CAL-148 = tested on: CAL-148
How it was run: as §1

Compound | drug sensitivity score (BT-474) | drug sensitivity score (BT-549) | drug sensitivity score (CAL-120) | drug sensitivity score (CAL-51) | drug sensitivity score (CAL-85-1) | drug sensitivity score (DU-4475) | drug sensitivity score (HCC1143) | drug sensitivity score (HCC1599) | drug sensitivity score (HCC1937) | drug sensitivity score (HDQ-P1) | drug sensitivity score (Hs578T) | drug sensitivity score (MCF-10A) | drug sensitivity score (MDA-MB-231) | drug sensitivity score (MDA-MB-436) | drug sensitivity score (MDA-MB-453) | drug sensitivity score (MDA-MB-468) | drug sensitivity score (MFM-223) | drug sensitivity score (CAL-148)
O=C(O)CC[C@H]1CC[C@@](c2cc(F)ccc2F)(S(=O)(=O)c2ccc(Cl)cc2)CC1 [MK-0752] | 0 | 0 | 0 | 0 | 1.74 | 0 | 0 | 0 | 0 | 0 | 0 | 0 | 0 | 0 | 1.23 | 0 | 0 | –
CC(C)(C)Cn1c(N)nc2ccc(-c3[nH]c(C(C)(C)C)nc3-c3ccc(F)cc3)nc21 | 0 | 0 | 0.748 | 0 | 4.77 | 0 | 0 | 0 | 0 | 0 | – | 0 | 0.996 | 2.7 | 0 | 0 | 0 | 0
Cc1c(N)nc([C@H](CC(N)=O)NC[C@H](N)C(N)=O)nc1C(=O)N[C@H](C(=O)N[C@H](C)[C@@H](O)[C@H](C)C(=O)N[C@H](C(=O)NCCc1nc(-c2nc(C(=O)NCCC[S+](C)C)cs2)cs1)[C@@H](C)O)[C@@H](OC1OC(CO)C(O)C(O)C1OC1OC(CO)C(O)C(OC(N)=O)C1O)c1cnc[nH]1 (some centres undefined) [Bleomycin] | 0 | 1.71 | 0 | 19.8 | 0.93 | 0 | 0 | 0 | 0 | 0 | – | 0 | 4.48 | 2.42 | 0 | 0 | 0 | 8.42
C[C@]12C=CC(=O)C=C1CC[C@@H]1[C@@H]2C(=O)C[C@@]2(C)[C@H]1CC[C@]2(O)C(=O)CO [Prednisone] | 0 | 0 | 0.113 | 0 | 0 | 0 | 0 | 0 | 0 | 0 | – | 0 | 0 | 0 | 0 | 0 | 0 | 0
CCCCCOC(=O)Nc1nc(=O)n([C@@H]2O[C@H](C)[C@@H](O)[C@H]2O)cc1F [Capecitabine] | 0 | 0 | 0 | 0 | 0 | 0 | 0 | 0 | 0 | 0 | – | 0 | 0 | 0 | 0 | 0 | 3.74 | 0
C[C@@H](C(=O)O)c1ccc(-c2ccccc2)c(F)c1 [Tarenflurbil] | 0.00754 | 0 | 0 | 0 | 0 | 0 | 0 | 0 | 0 | 0 | – | 0.986 | 0 | 0 | 0 | 0 | 0 | 0
CC(C)C(=O)Nc1ccc([N+](=O)[O-])c(C(F)(F)F)c1 [Flutamide] | 0 | 0 | 0 | 0 | 0 | 0 | 0 | 0 | 0 | 0 | 0 | 0 | 0 | 0 | 0 | 0 | 0 | –
